From PubChem BioAssay AID2060904 (Molecular Pharmacology Branch, DTP, NCI, 2025)

Test system: 349418-098-R-PDC complex spheroid viability
Assay: Anticancer human tumor 349418-098-R-PDC patient-derived lung adenocarcinoma cell line growth inhibition [RAS]
Conditions: for IC50: curve of first compound; for viability, T/C: stronger effect = lower value
Summary of the method: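 Tumour cells grown as complex spheroids with HUVEC endothelial cells and mesenchymal stem cells, treated with RAS pathway inhibitor combinations. Each agent spans half-log steps from near clinical Cmax, or 10 microM where Cmax is unknown.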

[1] = second compound 0.000949 µM, first compound 0.0316 µM
[2] = second compound 0.000949 µM, first compound 0.1 µM
[3] = second compound 0.000949 µM, first compound 0.316 µM
[4] = second compound 0.000949 µM, first compound 1 µM
[5] = second compound 0.003 µM, first compound 0.0316 µM
[6] = second compound 0.003 µM, first compound 0.1 µM
[7] = second compound 0.003 µM, first compound 0.316 µM
[8] = second compound 0.003 µM, first compound 1 µM
[9] = second compound 0.00949 µM, first compound 0.0316 µM
[10] = second compound 0.00949 µM, first compound 0.1 µM
[11] = second compound 0.00949 µM, first compound 0.316 µM
[12] = second compound 0.00949 µM, first compound 1 µM
[13] = second compound 0.03 µM, first compound 0.0316 µM
[14] = second compound 0.03 µM, first compound 0.1 µM
[15] = second compound 0.03 µM, first compound 0.316 µM
[16] = second compound 0.03 µM, first compound 1 µM
[17] = second compound 0.0949 µM, first compound 0.0316 µM
[18] = second compound 0.0949 µM, first compound 0.1 µM
[19] = second compound 0.0949 µM, first compound 0.316 µM
[20] = second compound 0.0949 µM, first compound 1 µM
[21] = second compound 0.3 µM, first compound 0.0316 µM
[22] = second compound 0.3 µM, first compound 0.1 µM
[23] = second compound 0.3 µM, first compound 0.316 µM
[24] = second compound 0.3 µM, first compound 1 µM
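Note: spheroids exposed to compound for seven days before viability readout.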

SMILES: CC1(O)CCCC1n1c(=O)c(C(F)F)cc2cnc(NC3CCN(S(C)(=O)=O)CC3)nc21 (centres undefined) + CCn1c(-c2cccnc2C(C)OC)c2c3cc(ccc31)N1CCOC(CC(NC(=O)C(C(C)C)N(C)C(=O)C3(F)CCN(C(=O)C#CC(C)(C)N(C)C)CC3)C(=O)N3CCCC(N3)C(=O)OCC(C)(C)C2)C1
- IC50 (second compound 0.000949 µM): 54.1 nM
- IC50 (second compound 0.003 µM): 54.9 nM
- IC50 (second compound 0.00949 µM): 76.3 nM
- IC50 (second compound 0.03 µM): 71 nM
- IC50 (second compound 0.0949 µM): 64.2 nM
- IC50 (second compound 0.3 µM): 31.6 nM
- viability, T/C [1]: 60.9%
- viability, T/C [2]: 35.5%
- viability, T/C [3]: 27.6%
- viability, T/C [4]: 21.5%
- viability, T/C (second compound 0.000949 µM, first compound 3.16 µM): 18.8%
- viability, T/C (second compound 0.000949 µM, first compound 10 µM): 2.67%
- viability, T/C [5]: 60.3%
- viability, T/C [6]: 38.4%
- viability, T/C [7]: 24.2%
- viability, T/C [8]: 20.4%
- viability, T/C (second compound 0.003 µM, first compound 3.16 µM): 17.7%
- viability, T/C (second compound 0.003 µM, first compound 10 µM): 2.71%
- viability, T/C [9]: 67.8%
- viability, T/C [10]: 45.8%
- viability, T/C [11]: 23.9%
- viability, T/C [12]: 20.4%
- viability, T/C (second compound 0.00949 µM, first compound 3.16 µM): 15.9%
- viability, T/C (second compound 0.00949 µM, first compound 10 µM): 3.42%
- viability, T/C [13]: 70.3%
- viability, T/C [14]: 39.7%
- viability, T/C [15]: 24.8%
- viability, T/C [16]: 19.2%
- viability, T/C (second compound 0.03 µM, first compound 3.16 µM): 20%
- viability, T/C (second compound 0.03 µM, first compound 10 µM): 2.63%
- viability, T/C [17]: 74%
- viability, T/C [18]: 31.6%
- viability, T/C [19]: 22.3%
- viability, T/C [20]: 19.5%
- viability, T/C (second compound 0.0949 µM, first compound 3.16 µM): 16.4%
- viability, T/C (second compound 0.0949 µM, first compound 10 µM): 2.35%
- viability, T/C [21]: 52.5%
- viability, T/C [22]: 31.6%
- viability, T/C [23]: 22.4%
- viability, T/C [24]: 19%
- viability, T/C (second compound 0.3 µM, first compound 3.16 µM): 18.4%
- viability, T/C (second compound 0.3 µM, first compound 10 µM): 2.97%

SMILES: Nc1ccn(C2OC(CO)C(O)C2(F)F)c(=O)n1 (centres undefined) + CCn1c(-c2cc(N3CCN(C)CC3)cnc2C(C)OC)c2c3cc(ccc31)-c1csc(n1)CC(NC(=O)C1CC1C)C(=O)N1CCCC(N1)C(=O)OCC(C)(C)C2
- IC50 (second compound 0.000949 µM): < 3.16 nM
- IC50 (second compound 0.003 µM): < 3.16 nM
- IC50 (second compound 0.00949 µM): < 3.16 nM
- IC50 (second compound 0.03 µM): < 3.16 nM
- IC50 (second compound 0.0949 µM): < 3.16 nM
- IC50 (second compound 0.3 µM): < 3.16 nM
- viability, T/C (second compound 0.000949 µM, first compound 0.00316 µM): 33.4%
- viability, T/C (second compound 0.000949 µM, first compound 0.01 µM): 6.66%
- viability, T/C [1]: 5.75%
- viability, T/C [2]: 4.77%
- viability, T/C [3]: 5.22%
- viability, T/C [4]: 4.87%
- viability, T/C (second compound 0.003 µM, first compound 0.00316 µM): 21.9%
- viability, T/C (second compound 0.003 µM, first compound 0.01 µM): 6.3%
- viability, T/C [5]: 5.15%
- viability, T/C [6]: 4.81%
- viability, T/C [7]: 4.73%
- viability, T/C [8]: 4.09%
- viability, T/C (second compound 0.00949 µM, first compound 0.00316 µM): 24.4%
- viability, T/C (second compound 0.00949 µM, first compound 0.01 µM): 6.44%
- viability, T/C [9]: 5.46%
- viability, T/C [10]: 4.39%
- viability, T/C [11]: 5.27%
- viability, T/C [12]: 4.67%
- viability, T/C (second compound 0.03 µM, first compound 0.00316 µM): 29%
- viability, T/C (second compound 0.03 µM, first compound 0.01 µM): 9.12%
- viability, T/C [13]: 4.98%
- viability, T/C [14]: 5.4%
- viability, T/C [15]: 5.08%
- viability, T/C [16]: 5.39%
- viability, T/C (second compound 0.0949 µM, first compound 0.00316 µM): 43.2%
- viability, T/C (second compound 0.0949 µM, first compound 0.01 µM): 10.6%
- viability, T/C [17]: 4.96%
- viability, T/C [18]: 5.29%
- viability, T/C [19]: 5.26%
- viability, T/C [20]: 4.88%
- viability, T/C (second compound 0.3 µM, first compound 0.00316 µM): 46.8%
- viability, T/C (second compound 0.3 µM, first compound 0.01 µM): 16.9%
- viability, T/C [21]: 6.97%
- viability, T/C [22]: 5.92%
- viability, T/C [23]: 5.96%
- viability, T/C [24]: 5.73%
